Assay results as given in PMC8338929, “Acetylation turns leucine into a drug by membrane transporter switching” (Scientific Reports, 2021).

Columns and labels:
[1] = target: T1, human LAT1 (SLC7A5) (Homo sapiens, UniProt Q01650); assay: Inhibition of LAT1 uptake of probe substrate gabapentin in MDCK-II cells; type: cell-based; settings: probe gabapentin 10 µM; positive control JPH203 10 µM
T1 construct: host or cells: MDCK-II
Procedure: Transport studies with human PepT1 (SLC15A1), LAT1 (SLC7A5) and MCT1 (SLC16A1) were conducted in MDCK-II cells expressing the human transporter or control cells expressing a vector with Green Fluorescence Protein. Cells were transfected using a proprietary, transient transfection system (OPTI-EXPRESSION Technology, BioIVT). The results from the control cells were used to correct for substrate permeation by routes other than the transporter being investigated in the study. […] Specifically, Net Transporter Mediated Substrate Uptake (pmol/min/cm^2) = (Cellular accumulation in the presence of the transporter) − (Mean cellular accumulation in the absence of the transporter). MDCK-II cells were maintained in DMEM with low glucose and 10% FBS. Cells were used at passages up to 40 were seeded at 60,000 ± 10,000 cells/well on 96-well plates approximately 24 h before transfection, and transport assays were performed approximately 48 h after transfection. […]
Transport studies with PepT1 were conducted in 96-well cell culture plate with wells containing a monolayer of MDCK-II cells grown on a permeable support and a corresponding 96-well receiver tray. […] Then a 30-µL sample was taken and mixed with 200 µL of scintillation fluid and scintillation counted (1450 Microbeta, Perkin-Elmer). […]

[2] = target: T2, Human OAT3 (SLC22A8) (Homo sapiens, UniProt Q8TCC7); assay: Inhibition of OAT3 uptake of probe substrate estrone-3-sulfate in HEK-293 cells; type: cell-based; settings: probe estrone-3-sulfate 2 µM; positive control diclofenac 100 µM
T2 construct: host or cells: HEK-293
T2 sequence (Q8TCC7 1-542): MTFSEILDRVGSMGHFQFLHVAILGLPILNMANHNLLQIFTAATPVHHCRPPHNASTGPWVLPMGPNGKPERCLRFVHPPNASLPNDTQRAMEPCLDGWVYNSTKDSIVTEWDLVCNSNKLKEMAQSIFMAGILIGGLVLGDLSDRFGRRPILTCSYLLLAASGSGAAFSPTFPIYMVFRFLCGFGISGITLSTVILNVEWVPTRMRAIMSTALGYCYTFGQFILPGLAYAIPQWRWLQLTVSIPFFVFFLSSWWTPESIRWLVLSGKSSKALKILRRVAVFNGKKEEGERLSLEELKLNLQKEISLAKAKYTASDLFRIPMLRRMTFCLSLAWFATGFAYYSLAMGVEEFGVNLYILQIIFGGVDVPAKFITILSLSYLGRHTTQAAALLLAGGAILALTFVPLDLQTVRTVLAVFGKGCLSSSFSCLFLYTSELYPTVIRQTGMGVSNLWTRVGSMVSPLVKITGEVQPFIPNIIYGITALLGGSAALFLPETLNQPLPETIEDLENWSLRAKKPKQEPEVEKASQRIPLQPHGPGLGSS
Procedure: Cells were grown in DMEM (Gibco 4196, high glucose, without sodium pyruvate) supplemented with MEM non-essential amino acids and 10% fetal bovine serum. Cells were re-fed with fresh medium after attachment (4–6 h post-seeding). Cell were plated at a density of 4 × 10^5/well in 24-well plates coated with poly-D-lysine. Transporter assays were conducted in 400 µL of HBSS supplemented with 10 mM Hepes, pH 7.4
The known probe substrates used as positive controls were 3 μM chlorothiazide for OAT1, 2 μM estrone-3-sulfate for OAT3, 10 µM [^3H]gabapentin for LAT1, 50 µM [^3H]Gly-Sar for PepT1, 500 µM thiophene-2-glyoxylic acid for MCT1. The known inhibitors used as controls for each transporter were 100 μM diclofenac for OAT1 and OAT3, 10 µM JPH203 for LAT1 and 200 µM losartan for PepT1. All incubations were in triplicate and contained 1% (OAT1 and OAT3) or 0.5% DMSO (LAT, PepT1 and MCT1). […]
[I] is the inhibitor concentration and IC50 is the inhibitor concentration where the remaining activity is at the midpoint between the Top and Bottom. […] In inhibition experiments, the IC50 is not equivalent to affinity because it is dependent on the concentrations of the substrate, the inhibitor and affinity; therefore, we assumed competitive inhibition, and calculated affinity of inhibition (Ki) with the Cheng-Prusoff equation[49].

T1 sequence (Q01650 whole entry): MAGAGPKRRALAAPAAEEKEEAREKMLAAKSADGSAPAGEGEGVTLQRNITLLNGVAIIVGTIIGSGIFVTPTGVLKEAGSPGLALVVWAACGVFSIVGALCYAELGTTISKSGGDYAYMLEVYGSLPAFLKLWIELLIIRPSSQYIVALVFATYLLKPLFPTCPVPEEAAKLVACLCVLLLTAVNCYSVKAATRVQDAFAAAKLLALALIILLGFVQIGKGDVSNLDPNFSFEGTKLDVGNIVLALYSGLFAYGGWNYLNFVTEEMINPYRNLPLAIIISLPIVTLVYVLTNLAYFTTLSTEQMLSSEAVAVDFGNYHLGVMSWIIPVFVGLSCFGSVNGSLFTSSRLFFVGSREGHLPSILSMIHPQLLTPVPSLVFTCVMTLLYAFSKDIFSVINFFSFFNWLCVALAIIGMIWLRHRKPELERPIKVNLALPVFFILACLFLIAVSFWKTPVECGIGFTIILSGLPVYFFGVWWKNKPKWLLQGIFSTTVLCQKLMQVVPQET
T1 sequence (P08195 102-630 partner): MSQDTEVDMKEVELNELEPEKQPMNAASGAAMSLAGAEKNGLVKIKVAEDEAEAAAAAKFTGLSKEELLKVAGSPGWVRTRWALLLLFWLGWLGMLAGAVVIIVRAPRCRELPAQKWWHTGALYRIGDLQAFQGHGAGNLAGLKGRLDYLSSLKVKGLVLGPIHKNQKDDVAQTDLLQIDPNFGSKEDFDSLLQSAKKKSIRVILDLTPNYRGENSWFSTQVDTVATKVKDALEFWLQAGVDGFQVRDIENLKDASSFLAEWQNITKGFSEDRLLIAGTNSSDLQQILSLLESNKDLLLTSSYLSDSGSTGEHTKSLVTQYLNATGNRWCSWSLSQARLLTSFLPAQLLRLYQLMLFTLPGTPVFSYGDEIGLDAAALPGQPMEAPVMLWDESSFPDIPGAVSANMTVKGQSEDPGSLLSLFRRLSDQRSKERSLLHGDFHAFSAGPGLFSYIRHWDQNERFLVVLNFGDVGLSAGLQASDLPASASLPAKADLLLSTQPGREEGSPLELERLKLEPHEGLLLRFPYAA

- inhibitor of LAT1 [1]: nor an inhibitor
- IC50 [2]: 700 µM
Compound: CC(=O)N[C@@H](CC(C)C)C(=O)O [N-acetyl-L-leucine]
